Measurements reported in patent US10300067B2, “Tetrahydropyridopyrimidine compound or salt thereof” (TAIHO PHARMACEUTICAL CO., LTD., priority 2014, dated 2019).
Blank lines part the entries; values can stand above or below the compound they belong to.

Experiments:
Format in all cases: cell-based
androgen receptor = androgen receptor (Homo sapiens (Human), UniProt P10275, T878A); experiment: Activity of reducing expression level of androgen receptor (Western blotting of LNCaP cell lysate); settings: 48 hours
Procedure: AR positive human prostate cancer cells LNCaP were seeded in a clear bottom 6 well microplate (BD) at 3.5×10^5/well with phenol red free RPMI1640 containing 5% FBS (hereinbelow, the medium is referred to as an evaluation medium), and then cultured overnight. The culture was added with the evaluation medium containing the compound of Examples or the compound of Comparative Examples such that the final concentration of the compound of Examples or the compound of Comparative Examples was 10000 nmol/L, followed by culture for 48 hours. After culture for 48 hours, the medium was removed and the cells were washed with PBS and added with 0.1 mL of Lysis buffer (M-PER added with Protease Inhibitor Cocktail), followed by keeping at 4° C. for 20 minutes. After cell lysis, the cell solution was centrifuged to recover the supernatant as cell lysate. […] The antibody-reacting band (anti AR receptor) was quantified by LAS-3000 (FUJIFILM) using Super Signal West Pico Substrate (Thermo Scientific) as a detection reagent.

[1] = test system: Human prostate cancer cells LNCaP; experiment: Androgen-dependent inhibitory activity on proliferation of prostate cancer cells; settings: 50% proliferation inhibition concentration, DHT 10 nmol/L, 72 hours, read-out: GI50 value
Procedure: Human prostate cancer cells LNCaP (Non-Patent Literature 5) having […] androgen receptor gene were seeded in a clear bottom 96 well microplate (BD) at 4.0×10^3/well with phenol red free RPMI1640 containing 5% DCC-FBS (hereinbelow, the medium is referred to as an evaluation medium), and then cultured overnight. The culture was added with the evaluation medium containing DHT (final concentration of DHT: 10 nmol/L) or the evaluation medium containing the compound of Examples or the compound of Comparative Examples (final concentration of the compound of Examples or the compound of Comparative Examples: 10, 30, 100, 300, 1000, 3000, 10000, or 30000 nmol/L), followed by culture for 72 hours. Then, the number of viable cells was counted. The number of viable cells was measured by using Cell Counting Kit-8 (DOJINDO LABORATORIES).

[2] = test system: AR positive human prostate cancer cells VCaP; experiment: Agonist activity for AR (cell proliferation rate of VCaP cells); settings: 72 hours, 2 to 10000 nmol/L, more than 10% at any concentration = agonist activity for AR
Procedure: AR positive human prostate cancer cells VCaP (In Vivo 15:163-168, 2001) were seeded in a clear bottom 96 well microplate (BD) at 1.5×10^4/well with phenol red free RPMI1640 containing 5% DCC-FBS (hereinbelow, the medium is referred to as an evaluation medium), and then cultured overnight. The culture was added with the evaluation medium containing the compound of Examples or the compound of Comparative Examples (final concentration of the compound of Examples or the compound of Comparative Examples: 2, 5, 14, 41, 123, 370, 1111, 3333, or 10000 nmol/L), followed by culture for 72 hours. Then, the number of viable cells was counted (test group). As a control, the cells were cultured after being added with the evaluation medium only, and the number of viable cells was counted (control group). The number of viable cells was measured by using CellTiter-Glo™ Luminescent Cell Viability Assay (Promega). From the measured number of viable cells, cell proliferation rate with respect to the compound of Examples or the compound of Comparative Examples was calculated based on the number of viable cells measured in the case of using the evaluation medium only. Cell proliferation rate (%) =(Number of viable cells in test group−Number of viable cells in control group)/(Number of viable cells in control group)×100
By considering an error in the number of viable cells measured in the case of using the evaluation medium only, when the cell proliferation rate was more than 10% at any concentration of the 9 concentrations which had been evaluated, it was determined to have an agonist activity for AR.

human androgen receptor = human androgen receptor (Homo sapiens (Human), UniProt P10275); experiment: Antagonist activity for AR (pMMTV-luc reporter transcription activity in transfected COS-7 cells, DHT 1 nmol/L); settings: 50% transcription activity inhibition concentration; COS-7 cells with pMMTV-luc and pEX-hAR, DHT 1 nmol/L, 24 hours
Procedure: Antagonist activity for AR was evaluated according to the following method. COS-7 cells (ATCC) were transfected with pMMTV-luc vector (reporter plasmid having, as an androgen response element, […] long terminal repeat) and pEX-hAR vector (human androgen receptor expression vector: which expresses human AR gene under control of CMV promoter) by using Nucleofector (registered trademark) Kit R (Lonza) as a transfection reagent and Amaxa (Lonza). The COS-7 cells obtained after transfection were seeded in a clear bottom 96 well microplate (BD) at 1.5×10^4/well with phenol red free RPMI1640 containing 10% charcoal-treated fetal bovine serum (hereinbelow, DCC-FBS) (hereinbelow, the medium is referred to as an evaluation medium), and then cultured overnight. […] Then, the transcription activity value was measured. The transcription activity was measured by using Bright-Glo™ Luciferase Assay System (Promega).

Chain of human androgen receptor (P10275 whole entry): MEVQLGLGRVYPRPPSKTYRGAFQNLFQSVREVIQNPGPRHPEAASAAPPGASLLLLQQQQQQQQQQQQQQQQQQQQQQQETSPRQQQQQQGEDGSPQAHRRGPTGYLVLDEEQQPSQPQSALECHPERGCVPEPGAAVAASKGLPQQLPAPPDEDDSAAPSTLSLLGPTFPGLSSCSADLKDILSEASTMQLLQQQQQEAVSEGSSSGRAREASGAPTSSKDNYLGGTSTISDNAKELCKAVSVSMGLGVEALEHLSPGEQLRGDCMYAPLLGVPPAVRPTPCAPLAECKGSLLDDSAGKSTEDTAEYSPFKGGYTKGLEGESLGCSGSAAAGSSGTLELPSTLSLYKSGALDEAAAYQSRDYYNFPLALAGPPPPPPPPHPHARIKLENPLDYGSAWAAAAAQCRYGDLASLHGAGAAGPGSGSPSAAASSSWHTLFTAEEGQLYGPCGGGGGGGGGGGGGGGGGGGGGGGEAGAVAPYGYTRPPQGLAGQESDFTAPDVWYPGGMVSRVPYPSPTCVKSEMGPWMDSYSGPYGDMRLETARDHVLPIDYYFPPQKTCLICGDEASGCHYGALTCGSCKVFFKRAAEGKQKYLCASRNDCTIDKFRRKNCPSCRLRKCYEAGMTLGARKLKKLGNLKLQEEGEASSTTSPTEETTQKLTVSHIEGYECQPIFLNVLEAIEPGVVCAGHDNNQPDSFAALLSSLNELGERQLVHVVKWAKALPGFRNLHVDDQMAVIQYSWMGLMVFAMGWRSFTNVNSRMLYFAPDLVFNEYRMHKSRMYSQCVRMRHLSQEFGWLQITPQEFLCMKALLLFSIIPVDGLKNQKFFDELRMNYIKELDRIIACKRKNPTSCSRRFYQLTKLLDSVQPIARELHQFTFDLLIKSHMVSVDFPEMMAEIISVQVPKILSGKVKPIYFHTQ
Chain of androgen receptor (P10275 whole entry T878A): as the sequence (P10275 whole entry) above, with T878A counted along it

SMILES: N#Cc1ccc(N2CCc3c(ncnc3Nc3ccc(C(=O)NCC4(O)CC4)nn3)C2)cc1C(F)(F)F [Example 30, 6-((7-(4-Cyano-3-(trifluoromethyl)phenyl)-5,6,7,8-tetrahydropyrido[3,4-d]pyrimidin-4-yl)amino)-N-((1-hydroxycyclopropyl)methyl)pyridazine-3-carboxamide]
10 μM AR expression reducing activity (androgen receptor): reduced (When the AR expression reducing activity is 50% or more, it is described as “reduced”)
GI50 [1]: 3200 nM

SMILES: N#Cc1ccc(N2CCc3c(ncnc3Nc3ncns3)C2)cc1C(F)(F)F [Example 1, 4-(4-((1,2,4-thiadiazol-5-yl)amino)-5,6-dihydropyrido[3,4-d]pyrimidin-7(8H)-yl)-2-(trifluoromethyl)benzonitrile]
10 μM AR expression reducing activity (androgen receptor): reduced (When the AR expression reducing activity is 50% or more, it is described as “reduced”)
Cell proliferation rate (%) [2]: 8.7%
IC50 (human androgen receptor): 80 nM
GI50 [1]: 3000 nM

SMILES: N#Cc1ccc(N2CCc3c(ncnc3Nc3ccc(NC(=O)CC(F)(F)F)cn3)C2)cc1C(F)(F)F [Example 23, N-(6-((7-(4-Cano-3-(trifluoromethyl)phenyl)-5,6,7,8-tetrahydropyrido[3,4-d]pyrimidin-4-yl)amino)pyridin-3-yl)-3,3,3-trifluoropropanamide]
Cell proliferation rate (%) [2]: 5.1%
IC50 (human androgen receptor): 800 nM
GI50 [1]: 1500 nM

SMILES: N#Cc1ccc(N2CCc3c(ncnc3Nc3ccc(C(=O)NCC(F)(F)F)nn3)C2)cc1C(F)(F)F [Example 24, 6-((7-(4-Cyano-3-(trifluoromethyl)phenyl)-5,6,7,8-tetrahydropyrido[3,4-d]pyrimidin-4-yl)amino)-N-(2,2,2-trifluoroethyl)pyridazine-3-carboxamide]
10 μM AR expression reducing activity (androgen receptor): reduced (When the AR expression reducing activity is 50% or more, it is described as “reduced”)
IC50 (human androgen receptor): 70 nM
GI50 [1]: 3500 nM

SMILES: CC(C)(O)CNC(=O)c1cnc(Nc2ncnc3c2CCN(c2ccc(C#N)c(C(F)(F)F)c2)C3)cn1 [Example 33, 5-((7-(4-Cyano-3-(trifluoromethyl)phenyl)-5,6,7,8-tetrahydropyrido[3,4-d]pyrimidin-4-yl)amino)-N-(2-hydroxy-2-methylpropyl)pyrazine-2-carboxamide]
Cell proliferation rate (%) [2]: 4.4%
IC50 (human androgen receptor): 310 nM
GI50 [1]: 2100 nM

SMILES: Cn1nccc1CCOc1ccc(Nc2ncnc3c2CCN(c2ccc(C#N)c(C(F)(F)F)c2)C3)cc1 [Example 14, 4-(4-((4-(2-(1-Methyl-1H-pyrazol-5-yl)ethoxy)phenyl)amino)-5,6-dihydropyrido[3,4-d]pyrimidin-7(8H)-yl)-2-(trifluoromethyl)benzonitrile]
10 μM AR expression reducing activity (androgen receptor): reduced (When the AR expression reducing activity is 50% or more, it is described as “reduced”)
IC50 (human androgen receptor): 300 nM
GI50 [1]: 1400 nM

SMILES: N#Cc1ccc(N2CCc3c(ncnc3Nc3ccc(S(=O)(=O)NC4CC4)cn3)C2)cc1C(F)(F)F [Example 19, 6-((7-(4-Cyano-3-(trifluoromethyl)phenyl)-5,6,7,8-tetrahydropyrido[3,4-d]pyrimidin-4-yl)amino)-N-cyclopropylpyridine-3-sulfonamide]
IC50 (human androgen receptor): 130 nM
GI50 [1]: 3000 nM

SMILES: N#Cc1ccc(N2CCc3c(ncnc3Nc3ccc(C(=O)NCC(F)F)cn3)C2)cc1C(F)(F)F [Example 27, 6-((7-(4-Cyano-3-(trifluoromethyl)phenyl)-5,6,7,8-tetrahydropyrido[3,4-d]pyrimidin-4-yl)amino)-N-(2,2-difluoroethyl)nicotinamide]
Cell proliferation rate (%) [2]: −0.2%
IC50 (human androgen receptor): 90 nM
GI50 [1]: 2800 nM

SMILES: Cn1nccc1CCNC(=O)c1nnc(Nc2ncnc3c2CCN(c2ccc(C#N)c(C(F)(F)F)c2)C3)s1 [Example 35, 5-((7-(4-Cano-3-(trifluoromethyl)phenyl)-5,6,7,8-tetrahydropyrido[3,4-d]pyrimidin-4-yl)amino)-N-(2-(1-methyl-1H-pyrazol-5-yl)ethyl)-1,3,4-thiadiazol-2-carboxamide]
Cell proliferation rate (%) [2]: 0.1%
IC50 (human androgen receptor): 190 nM
GI50 [1]: 1600 nM

SMILES: N#Cc1ccc(N2CCc3c(ncnc3Nc3ccc(C(=O)N[C@H]4CC[C@H](O)CC4)nn3)C2)cc1Cl [Example 29, 6-((7-(3-Chloro-4-cyanophenyl)-5,6,7,8-tetrahydropyrido[3,4-d]pyrimidin-4-yl)amino)-N-((1r,4r)-4-hydroxycyclohexyl)pyridazine-3-carboxamide]
IC50 (human androgen receptor): 200 nM
GI50 [1]: 200 nM

GI50 [1]: 3500 nM
SMILES: CC(O)(CS(=O)(=O)c1ccc(F)cc1)C(=O)Nc1ccc(C#N)c(C(F)(F)F)c1 (stereo not drawn) [Comparative Example 1, N-(4-Cyano-3-(trifluoromethyl)phenyl)-3-((4-fluorophenyl)sulfonyl)-2-hydroxy-2-methylpropanamide, reference compound]
Cell proliferation rate (%) [2]: 39.7%

SMILES: CC(C)(O)C1CCN(C(=O)c2coc(Nc3ncnc4c3CCN(c3ccc(C#N)c(C(F)(F)F)c3)C4)n2)CC1 [Example 41, 4-(4-((4-(4-(2-Hydroxypropan-2-yl)piperidin-1-carbonyl)oxazol-2-yl)amino)-5,6-dihydropyrido[3,4-d]pyrimidin-7(8H)-yl)-2-(trifluoromethyl)benzonitrile]
10 μM AR expression reducing activity (androgen receptor): reduced (When the AR expression reducing activity is 50% or more, it is described as “reduced”)
IC50 (human androgen receptor): 1940 nM
GI50 [1]: 2400 nM

SMILES: C[C@@H](NC(=O)c1nnc(Nc2ncnc3c2CCN(c2ccc(C#N)c(C(F)(F)F)c2)C3)s1)c1nnco1 [Example 39, (R)—N-(1-(1,3,4-Oxadiazol-2-yl)ethyl)-5-((7-(4-cyano-3-(trifluoromethyl)phenyl)-5,6,7,8-tetrahydropyrido[3,4-d]pyrimidin-4-yl)amino)-1,3,4-thiadiazol-2-carboxamide]
10 μM AR expression reducing activity (androgen receptor): reduced (When the AR expression reducing activity is 50% or more, it is described as “reduced”)
Cell proliferation rate (%) [2]: 5.5%
IC50 (human androgen receptor): 2050 nM

SMILES: CC(C)(O)c1ccc(Nc2ncnc3c2CCN(c2ccc(C#N)c(Br)c2)C3)nc1 [Example 44, 2-Bromo-4-(4-((5-(2-hydroxypropan-2-yl)pyridin-2-yl)amino)-5,6-dihydropyrido[3,4-d]pyrimidin-7(8H)-yl)benzonitrile]
10 μM AR expression reducing activity (androgen receptor): reduced (When the AR expression reducing activity is 50% or more, it is described as “reduced”)
Cell proliferation rate (%) [2]: 5.2%
IC50 (human androgen receptor): 50 nM

SMILES: N#Cc1ccc(N2CCc3c(ncnc3Nc3ccc(C(=O)NCC(F)F)nn3)C2)cc1C(F)(F)F [Example 28, 6-((7-(4-Cyano-3-(trifluoromethyl)phenyl)-5,6,7,8-tetrahydropyrido[3,4-d]pyrimidin-4-yl)amino)-N-(2,2-difluoroethyl)pyridazine-3-carboxamide]
10 μM AR expression reducing activity (androgen receptor): reduced (When the AR expression reducing activity is 50% or more, it is described as “reduced”)
IC50 (human androgen receptor): 20 nM
GI50 [1]: 3200 nM
